Data as given in ChEMBL document CHEMBL3301562, “MMV Box screening against Plasmodium falciparum protein kinases and aminoacyl tRNA synthetases”.

Legend:
Format in all cases: functional
[1] = molecular target: Calcium-dependent protein kinase 1 (Plasmodium falciparum, UniProt P62344); assay: MMV: CDPK1 Protein kinase inhibition assay using recombinant PfCDPK1, syntide 2 peptide substrate, ATP and KinaseGlo to measure % inhibition at 1 uM MMV box compound.
Lysine--tRNA ligase = Lysine--tRNA ligase (Plasmodium falciparum (isolate 3D7), UniProt Q8IDJ8); assay: MMV: KRS recombinant Plasmodium falciparum Lysyl-tRNA-synthetase, assay with yeast tRNA, ATP, and lysine and 3 uM MMV malaria box compound, assay read out with kinase glo as % inhibition.
[2] = molecular target: T1, Mitogen-activated protein kinase (Plasmodium falciparum, UniProt Q25917); assay: Final concentrations were 1 uM ATP, 0.5 mM DTT, 1 mM MgCl2, 0.5 mg/mL BSA, and 10 ug/ml MAP2 in a buffer of 50 mM HEPES (pH 7.0). 0.5 mg/mL histone III-S served as the substrate (13); 100 uM AMP-PNP, an ATP analog, was used as a control inhibitor. Incubation time was 4 hours.
T1 sequence (Q25917 whole entry): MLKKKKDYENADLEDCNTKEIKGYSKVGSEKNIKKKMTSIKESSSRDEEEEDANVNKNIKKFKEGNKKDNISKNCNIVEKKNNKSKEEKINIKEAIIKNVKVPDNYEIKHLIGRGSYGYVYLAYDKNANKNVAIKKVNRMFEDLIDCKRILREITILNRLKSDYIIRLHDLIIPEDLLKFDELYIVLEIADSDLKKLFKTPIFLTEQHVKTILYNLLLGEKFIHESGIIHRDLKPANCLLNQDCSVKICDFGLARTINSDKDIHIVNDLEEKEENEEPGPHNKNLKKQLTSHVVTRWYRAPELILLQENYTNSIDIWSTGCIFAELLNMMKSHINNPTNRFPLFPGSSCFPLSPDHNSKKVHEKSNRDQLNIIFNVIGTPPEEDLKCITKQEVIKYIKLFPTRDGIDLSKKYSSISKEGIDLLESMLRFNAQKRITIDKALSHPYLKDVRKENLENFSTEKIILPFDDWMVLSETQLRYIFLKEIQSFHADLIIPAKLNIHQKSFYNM

[3] = molecular target: T2, Cdk-related protein kinase 6 (Plasmodium falciparum, UniProt O77239); assay: Final concentrations were 1.5 uM ATP, 5 mM MnCl2, and 15 ug/ml PK6 in a buffer of 100 mM Tris-HCl (pH 7.5). 50 ug/mL MBP was provided as the substrate; 10 uM staurosporine was used as a control inhibitor. Incubation time was 3 hours and 40 minutes.The catalytic activity of each kinase was considered proportional to ATP consumed, as determined from measurements of residual [ATP] with the luciferase-based reagent Kinase-Glo (Promega) following incubation. Luminescence (proportional to residual [ATP]) was measured on the plate readers FLx800 (BioTek Instruments, Winooski, VT, USA) and MicroBeta2.
T2 sequence (O77239 whole entry): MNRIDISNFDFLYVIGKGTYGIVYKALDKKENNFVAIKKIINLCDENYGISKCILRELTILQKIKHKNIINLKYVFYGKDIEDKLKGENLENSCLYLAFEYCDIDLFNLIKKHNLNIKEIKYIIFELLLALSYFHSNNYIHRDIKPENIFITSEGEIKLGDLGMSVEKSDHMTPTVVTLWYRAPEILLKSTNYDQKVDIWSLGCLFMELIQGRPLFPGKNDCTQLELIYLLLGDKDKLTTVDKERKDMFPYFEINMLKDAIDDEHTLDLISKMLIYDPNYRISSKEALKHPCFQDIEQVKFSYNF

[4] = molecular target: T3, Calcium-dependent protein kinase 4 (Plasmodium falciparum (isolate 3D7), UniProt Q8IBS5); assay: MMV: CDPK4 Protein kinase inhibition assay using recombinant PfCDPK4, syntide2 peptide substrate, ATP and KinaseGlo to measure % inhibition at 1 uM MMV box compound.
T3 sequence (Q8IBS5 whole entry): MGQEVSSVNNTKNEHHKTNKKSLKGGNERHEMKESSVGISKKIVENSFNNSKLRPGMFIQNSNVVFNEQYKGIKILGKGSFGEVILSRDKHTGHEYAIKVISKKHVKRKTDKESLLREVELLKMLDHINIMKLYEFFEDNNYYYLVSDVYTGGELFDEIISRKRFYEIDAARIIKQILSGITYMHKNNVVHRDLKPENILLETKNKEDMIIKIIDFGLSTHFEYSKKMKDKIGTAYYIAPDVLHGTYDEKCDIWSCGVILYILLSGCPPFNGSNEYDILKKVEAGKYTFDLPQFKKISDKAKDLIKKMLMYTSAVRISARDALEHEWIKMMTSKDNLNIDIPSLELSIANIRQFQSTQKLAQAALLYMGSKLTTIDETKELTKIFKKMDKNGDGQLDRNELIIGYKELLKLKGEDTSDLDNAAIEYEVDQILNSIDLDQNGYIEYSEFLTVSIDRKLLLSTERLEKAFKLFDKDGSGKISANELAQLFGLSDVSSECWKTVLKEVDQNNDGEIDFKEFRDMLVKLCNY

Proline--tRNA ligase = molecular target: T4, Proline--tRNA ligase (Plasmodium falciparum (isolate 3D7), UniProt Q8I5R7); assay: MMV: ProRS recombinant Plasmodium falciparum Prolyl-tRNA-synthetase, assay with yeast tRNA, ATP, and proline and 3 uM MMV malaria box compound, assay read out with kinase glo as % inhibition.
T4 sequence (Q8I5R7 whole entry): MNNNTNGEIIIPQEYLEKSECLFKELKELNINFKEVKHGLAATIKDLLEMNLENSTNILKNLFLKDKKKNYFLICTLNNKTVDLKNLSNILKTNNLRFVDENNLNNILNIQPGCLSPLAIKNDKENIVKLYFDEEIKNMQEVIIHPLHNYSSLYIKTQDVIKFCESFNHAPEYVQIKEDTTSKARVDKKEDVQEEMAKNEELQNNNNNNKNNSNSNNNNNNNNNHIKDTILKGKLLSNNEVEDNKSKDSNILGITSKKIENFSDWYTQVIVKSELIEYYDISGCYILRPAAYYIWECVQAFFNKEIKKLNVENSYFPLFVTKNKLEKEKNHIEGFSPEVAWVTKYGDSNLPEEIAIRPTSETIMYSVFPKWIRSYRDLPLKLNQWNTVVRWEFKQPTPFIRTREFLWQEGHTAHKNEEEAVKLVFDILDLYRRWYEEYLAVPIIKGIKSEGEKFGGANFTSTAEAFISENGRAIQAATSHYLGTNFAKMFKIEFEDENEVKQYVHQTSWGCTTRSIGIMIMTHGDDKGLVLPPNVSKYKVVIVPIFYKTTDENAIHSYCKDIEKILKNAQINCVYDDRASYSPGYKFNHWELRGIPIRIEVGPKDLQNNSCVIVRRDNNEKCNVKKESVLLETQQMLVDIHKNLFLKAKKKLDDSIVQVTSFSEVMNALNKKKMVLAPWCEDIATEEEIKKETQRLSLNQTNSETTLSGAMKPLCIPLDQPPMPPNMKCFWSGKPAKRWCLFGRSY

[5] = molecular target: T5, Putative uncharacterized protein pk7 (Plasmodium falciparum, UniProt O96214); assay: Final concentrations were 1 uM ATP, 2 mM DTT, 20 mM MgCl2, 2 mM MnCl2, 0.01% BSA, and 6 ug/ml PK7, in a buffer of 20 mM Tris-HCl (pH 7.5). The enzyme itself was the only substrate present (since autophosphorylation occurs); 100 uM 1NA-PP1 was used as a control inhibitor. Incubation time was 3 hours.
T5 sequence (O96214 whole entry): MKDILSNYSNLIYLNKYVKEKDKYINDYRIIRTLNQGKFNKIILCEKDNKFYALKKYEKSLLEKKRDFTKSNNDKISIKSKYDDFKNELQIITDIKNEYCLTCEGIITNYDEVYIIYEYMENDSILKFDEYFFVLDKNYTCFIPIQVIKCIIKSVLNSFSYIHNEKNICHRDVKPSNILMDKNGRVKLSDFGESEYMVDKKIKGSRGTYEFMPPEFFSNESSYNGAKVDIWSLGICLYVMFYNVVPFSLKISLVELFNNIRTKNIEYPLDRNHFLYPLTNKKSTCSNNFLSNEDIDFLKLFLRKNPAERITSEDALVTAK

Calcium-dependent protein kinase 1, sequence (P62344 whole entry): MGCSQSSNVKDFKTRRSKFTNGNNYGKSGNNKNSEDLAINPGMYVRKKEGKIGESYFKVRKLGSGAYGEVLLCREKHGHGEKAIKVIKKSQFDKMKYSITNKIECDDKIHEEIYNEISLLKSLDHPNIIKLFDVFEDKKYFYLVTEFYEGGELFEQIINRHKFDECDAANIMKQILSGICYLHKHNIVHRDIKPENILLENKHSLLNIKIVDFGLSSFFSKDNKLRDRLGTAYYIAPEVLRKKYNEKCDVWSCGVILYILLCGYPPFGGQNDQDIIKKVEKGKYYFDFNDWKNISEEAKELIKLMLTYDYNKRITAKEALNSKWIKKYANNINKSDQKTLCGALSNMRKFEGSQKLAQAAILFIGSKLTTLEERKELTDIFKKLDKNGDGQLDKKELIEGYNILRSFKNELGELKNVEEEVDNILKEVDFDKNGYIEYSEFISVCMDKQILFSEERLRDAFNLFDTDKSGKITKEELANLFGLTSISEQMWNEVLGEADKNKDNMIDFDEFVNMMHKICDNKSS
Lysine--tRNA ligase, sequence (Q8IDJ8 whole entry): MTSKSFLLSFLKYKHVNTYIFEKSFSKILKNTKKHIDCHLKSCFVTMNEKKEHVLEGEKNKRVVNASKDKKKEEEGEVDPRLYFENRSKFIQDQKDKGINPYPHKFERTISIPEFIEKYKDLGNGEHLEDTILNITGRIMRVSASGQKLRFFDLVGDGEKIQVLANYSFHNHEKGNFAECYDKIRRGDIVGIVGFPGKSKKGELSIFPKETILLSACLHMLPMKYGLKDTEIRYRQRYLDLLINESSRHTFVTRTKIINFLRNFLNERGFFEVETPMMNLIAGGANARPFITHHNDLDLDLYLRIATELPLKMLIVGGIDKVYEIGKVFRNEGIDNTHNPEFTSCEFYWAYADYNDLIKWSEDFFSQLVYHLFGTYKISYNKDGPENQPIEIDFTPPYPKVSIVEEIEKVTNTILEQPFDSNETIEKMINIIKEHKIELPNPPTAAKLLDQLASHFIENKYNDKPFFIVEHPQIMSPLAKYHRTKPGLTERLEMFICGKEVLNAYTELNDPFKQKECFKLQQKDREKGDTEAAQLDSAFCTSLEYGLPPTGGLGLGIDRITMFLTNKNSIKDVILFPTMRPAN

Compound	IC50 [1]	IC50 (Lysine--tRNA ligase)	IC50 [2]	IC50 [3]	IC50 [4]	IC50 (Proline--tRNA ligase)	IC50 [5]
CCOC(=O)C1=C(C)N=c2sc(=Cc3cc(Cl)ccc3O)c(=O)n2C1c1ccc(OC)cc1 (configuration not stated)	> 1000 nM	> 2500 nM	> 1000 nM	> 1000 nM	> 1000 nM	> 2500 nM	> 1000 nM
FC(F)(F)c1cccc(Nc2nc3ccccc3nc2Nc2cccc(C(F)(F)F)c2)c1	> 1000 nM	> 2500 nM	> 1000 nM	> 1000 nM	> 1000 nM	> 2500 nM	> 1000 nM
CC(=O)c1ccc(NC(=O)CSc2nc(-c3ccccc3Cl)ns2)cc1	> 1000 nM	> 2500 nM	> 1000 nM	> 1000 nM	> 1000 nM	> 2500 nM	> 1000 nM
O=C(NCCCN1CCC(N2CCCCC2)CC1)C1=Cc2cc(Br)ccc2OC1	> 1000 nM	> 2500 nM	> 1000 nM	> 1000 nM	> 1000 nM	> 2500 nM	> 1000 nM
Cc1ccnc(NC(c2cccc(OCc3ccccc3)c2)c2ccc3cccnc3c2O)c1 (configuration not stated)	> 1000 nM	> 2500 nM	> 1000 nM	> 1000 nM	> 1000 nM	> 2500 nM	> 1000 nM
Cc1ccc(OCCCCCCNCCO)c(C)c1	> 1000 nM	> 2500 nM	> 1000 nM	> 1000 nM	> 1000 nM	> 2500 nM	> 1000 nM
CC(C)CCNCC(O)Cn1c2ccccc2c2ccccc21 (configuration not stated)	> 1000 nM	> 2500 nM	> 1000 nM	> 1000 nM	> 1000 nM	> 2500 nM	> 1000 nM
O=C(Nc1ccc(C23CC4CC(CC(c5ccccc5)(C4)C2)C3)cc1)c1cccs1	> 1000 nM	> 2500 nM	> 1000 nM	> 1000 nM	> 1000 nM	> 2500 nM	> 1000 nM
Cc1ccc2nc(C)cc(Nc3cccc(C(F)(F)F)c3)c2c1	> 1000 nM	> 2500 nM	> 1000 nM	> 1000 nM	> 1000 nM	> 2500 nM	> 1000 nM
COc1ccc(-c2cc(=O)oc3c4c(ccc23)OCN(Cc2ccc(F)cc2)C4)cc1	> 1000 nM	> 2500 nM	> 1000 nM	> 1000 nM	> 1000 nM	> 2500 nM	> 1000 nM
CCOC(=O)C1(Cc2ccccc2)CCN(Cc2cccc(OC)c2O)CC1	> 1000 nM	> 2500 nM	> 1000 nM	> 1000 nM	> 1000 nM	> 2500 nM	> 1000 nM
CC(C)(C)c1ccc2c(c1)CN(Cc1ccc(Cl)cc1)CO2	> 1000 nM	> 2500 nM	> 1000 nM	> 1000 nM	> 1000 nM	> 2500 nM	> 1000 nM
CCCCC(O)(c1ccc(Cl)cc1)C(CN1CCOCC1)c1ccc(Cl)cc1 (configuration not stated)	> 1000 nM	> 2500 nM	> 1000 nM	> 1000 nM	> 1000 nM	> 2500 nM	> 1000 nM
COc1ccc(OC)c(C2C3=C(CC(C)(C)CC3=O)N(c3ccc(Cl)c(Cl)c3)C3=C2C(=O)CC(C)(C)C3)c1	> 1000 nM	> 2500 nM	> 1000 nM	> 1000 nM	> 1000 nM	> 2500 nM	> 1000 nM
Cc1cc(=O)oc2c1ccc1oc(C(=O)c3ccccc3)c(C)c12	> 1000 nM	> 2500 nM	> 1000 nM	> 1000 nM	> 1000 nM	> 2500 nM	> 1000 nM
COc1ccc2c(c1OC)C(=O)N1c3ccccc3N=C(c3ccc(C)cc3)CC21 (configuration not stated)	> 1000 nM	> 2500 nM	> 1000 nM	> 1000 nM	> 1000 nM	> 2500 nM	> 1000 nM
CCCCCCc1cc(O)c2c3c(c(=O)oc2c1)CCC(C)C3 (configuration not stated)	> 1000 nM	> 2500 nM	> 1000 nM	> 1000 nM	> 1000 nM	> 2500 nM	> 1000 nM
CC1=C(CC(=O)c2cccc([N+](=O)[O-])c2)C(=O)c2ccccc2C1=O	> 1000 nM	> 2500 nM	> 1000 nM	> 1000 nM	> 1000 nM	> 2500 nM	> 1000 nM
COc1ccc(C)c2sc(N(Cc3cccnc3)C(=O)c3ccc(C#N)cc3)nc12	> 1000 nM	> 2500 nM	> 1000 nM	> 1000 nM	> 1000 nM	> 2500 nM	> 1000 nM
CCCCCn1c(=N)n(CC(O)COc2cccc(C)c2)c2ccccc21 (configuration not stated)	> 1000 nM	> 2500 nM	> 1000 nM	> 1000 nM	> 1000 nM	> 2500 nM	> 1000 nM
Cc1ccc(S(=O)(=O)c2c(COC(=O)c3cccc(C)c3)c(-c3ccccc3)nn2C)cc1	> 1000 nM	> 2500 nM	> 1000 nM	> 1000 nM	> 1000 nM	> 2500 nM	> 1000 nM
